# Reference: US8609649B2, “Compositions and methods for the diagnosis, treatment, and prevention of amyotrophic lateral sclerosis and related neurological diseases” (Brandeis University, priority 2007, dated 2013)
# Tests used:
# [1] = tested on: diabetic hyperlipidemic mice; conditions: cited from earlier work
# [2] = tested on: humans with systolic hypertension and moderately severe diastolic heart failure; conditions: 16 weeks, 23 humans; cited from earlier work
# [3] = tested on: hypertensive subjects; conditions: 93 hypertensive subjects age greater than 50 years, compared with placebo; cited from earlier work
# [4] = tested on: diabetic rats; conditions: cited from earlier work
# [5] = cited from earlier work
# [6] = molecular target: SOD-1 Cys111 (Homo sapiens, UniProt P00441); test: Intersubunit crosslinking of SOD-1; format: biochemical; conditions: FIG. 16
# [7] = tested on: AGE formation; conditions: in vitro; cited from earlier work
# [8] = humans; cited from earlier work
# [9] = tested on: mice; conditions: cited from earlier work
# [10] = tested on: proteasome; test: Proteasome activity in SOD-1-expressing stably transfected NIH/3T3 cell lines; format: cell-based; conditions: NIH/3T3 cell lines expressing the SOD-1 variant
# Description: Therefore, one aspect of the invention relates to monitoring proteasome activity to screen for potential ALS therapeutic compounds. FIG. 2 illustrates the results of using SOD-1 expressing cells (eG93A SOD-1 expressing clones; wild-type SOD-1 expressing clones; and […] G93A SOD-1 expressing clones) for said purpose. In certain embodiments, the assay involves administration of different concentrations of a given compound to G93A- and wild-type SOD-1 cell lines, and assaying proteasome activity. Successful compounds, in analogy to […]/G93A double mutant (FIG. 2), will relieve G93A SOD-1 associated proteasome inhibition. […] With successful hits, SOD-1 protein can be immunopurified from cell cultures to determine if there is any direct chemical bonding to SOD-1. pcDNA-3 vector with wild-type SOD-1, G93A SOD-1, […] SOD-1, […] G93A SOD-1 cDNA sequence were prepared by standard site-directed mutagenesis techniques. NIH/3T3 cells were maintained in Dulbecco's modified Eagle's medium (ATCC, Mannassas, Va.) supplemented with 10% newborn calf serum (Invitrogen, Carlsbad, Calif.). Cells were transfected with the plasmids using Lipofectamine 2000 (Invitrogen, Carlsbad, Calif.). A mock transfection was performed and cells were transfected under the same conditions but using either empty pcDNA-3 expression vector or no vector (to test the efficiency of selection). […]
# [11] = tested on: cultured motor neurons; test: Viability of motor neurons microinjected with plasmid encoding SOD-1 variants; format: cell-based, mouse; conditions: motor neurons expressing the SOD-1 variant, 10 days of observation, linear curve fit
# Description: (§1) Dissociation of spinal cord-dorsal root ganglia from embryonic day 13 CD 1 mice (Charles River Laboratories, Wilmington, Mass.), plating on poly-D-lysine-coated coverslips, culture media, and identification of motor neurons were as previously described. Roy, J., Minotti, S., Dong, L., Figlewicz, D. A., and Durham, H. D. (1998) J. Neurosci. 18, 9673-9684. Cultures were used 3-6 weeks after plating.
# (§2) Subcloning of SOD-1G93A and SOD-1 wt cDNAs into the BamHI/HindIII sites of pcDNA3 (Invitrogen) was performed previously using cDNAs provided by Dr. Denise Figlewicz (University of Michigan, Ann Arbor, Mich.). Wang, J., Xu, G., and Borchelt, D. R. (2002) Neurobiol. Dis. 9, 139-148. Trp 4 Phe (W32F) mutations were created by site-specific mutagenesis of SOD-1 G93A and SOD-1 wt (TOP Gene Technologies, Quebec, Canada), producing SOD-1 W32F/G93A and SOD-1 W32F mutants, respectively. Intranuclear microinjection of plasmids was used to express SOD-1 constructs in motor neurons and to assess their effects on the survival and formation of inclusions as previously described Durham, H. D., Roy, J., Dong, L., and Figlewicz, D. A. (1997) J. Neuropathol. Exp. Neurol. 56, 523-530.
# For viability experiments, motor neurons containing the co-injected fluorescent marker were counted daily under epifluorescence microscopy beginning 24 h post-microinjection. The number of motor neurons was expressed as a percentage of those present at 24 h to exclude those dying from injury during microinjection. The morphology of each cell was also evaluated by phase microscopy. All experiments involved a minimum of six cultures per condition with 20-80 motor neurons (average of 40) analyzed per culture. All experimental groups were analyzed simultaneously using cultures from the same batch, but each set of conditions was assessed for reproducibility in more than one culture batch. For viability experiments, injectates were coded by an independent researcher, and cell counts for viability were carried out blind to the identity of the experimental condition. Rates of cell death were calculated by a linear curve fit of the data (see FIG. 11) and are expressed as the percentage of death/day. The lowest observed linear regression r2 value was 0.94, and the average value was 0.96.
# For the survival assays, statistical significance was determined using analysis of variance between groups (SigmaStat, Systat Software, Inc., Point Richmond, Calif.). Significance was established at p less than or equal to 0.05. Data for percentage of motor neurons with inclusions were tested for normal distribution and then compared using a one-tailed, two-sample t test for equal means under the assumption of unequal variance. A null hypothesis of equal means was rejected when p is less than or equal to 0.05.
# [12] = tested on: cultured motor neurons; test: SOD-1-positive cytoplasmic inclusions in microinjected motor neurons; format: cell-based, mouse
# Description: as §1
# as §2, with “523-530. […]” for “523-530.”
# For the survival assays, statistical significance was determined using analysis of variance between groups (SigmaStat, Systat Software, Inc., Point Richmond, Calif.). […]
# [13] = 12 weeks therapy, diabetic hypertensive rats
# Chain of SOD-1 Cys111 (P00441 2-154 limits assumed): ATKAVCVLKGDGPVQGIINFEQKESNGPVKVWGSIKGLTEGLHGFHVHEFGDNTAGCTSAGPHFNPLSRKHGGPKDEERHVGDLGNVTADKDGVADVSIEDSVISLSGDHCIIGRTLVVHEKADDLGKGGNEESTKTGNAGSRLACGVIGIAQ
compound,measurement,setting,value
"Cc1sc[n+](CC(=O)c2ccccc2)c1C.[Cl-] [ALT-711, alagebrium chloride]","atherosclerosis, cholesterol and systolic blood pressure",[1],attenuated atherosclerosis and decreased cholesterol and systolic blood pressure
same,"left ventricular mass, left ventricular filling, patient ratings of quality of life",[2],"decreased left ventricular mass, improved left ventricular filling, and improved patient ratings of quality of life"
same,pulse pressure and arterial stiffness,[3],significant reduction
same,"levels of AGEs, RAGE expression, diabetic nephropathy, myocardial stiffness",[4]; diabetic rats,decrease
"CC(=O)NCCNC(=N)NN.Cl [ALT-946, N-(2-acetamidoethyl)hydrazinecarboximidamide hydrochloride]",decrease of albuminuria compared with aminoguanidine therapy,[4]; [13],250%
same,renal AGEs by histologic analysis,[4]; [13],reduce renal AGEs
same,albuminuria,"[4]; rat model, used at the onset of diabetes and initiated after 16 weeks of diabetes",reduced albuminuria
N=C(N)NN [Aminoguanidine],incidence of glomerulonephritis,[5]; higher dose,increased incidence
same,proteinuria,"[5]; lower dose, P<0.001",equally effective
same,retinopathy progression,"[5]; lower dose, P=0.03",preventing retinopathy progression
same,serious side effects,[5]; lower dose,free of serious side effects
same,"nephropathy, retinopathy, and vessel elasticity",[4]; diabetic rats,improve
O=C1C=CC(=O)N1CCSSCCN1C(=O)C=CC1=O [DTME],intersubunit crosslinking of SOD-1 Cys111,[6],intersubunit crosslinking
C=CS(=O)(=O)CCCCCCS(=O)(=O)C=C [HBVS],intersubunit crosslinking of SOD-1 Cys111,[6],intersubunit crosslinking
CN(C)C(=N)N=C(N)N [Metformin],AGE formation,[7],prevent AGE formation
O=C(C[n+]1ccsc1)c1ccccc1.[Br-] [N-phenacylthiazolium bromide],AGEs,[4]; diabetic rat models,decrease AGEs
same,nephropathy as measured by proteinuria,[4]; diabetic rat models,has not decreased nephropathy
Cc1ncc(CO)c(CN)c1O [Pyridoxamine],cholesterol levels,[4]; compared with aminoguanidine,lowered cholesterol levels more than aminoguanidine
same,diabetic nephropathy,[4]; compared with aminoguanidine,inhibited diabetic nephropathy equally to aminoguanidine
same,AGE formation,[4]; nondiabetic and diabetic rats,retarded AGE formation
same,weight,[4]; nondiabetic and diabetic rats,mild weight loss
CCCCC1=NC2(CCCC2)C(=O)N1Cc1ccc(-c2ccccc2-c2nnn[nH]2)cc1 [irbesartan],vascular inflammation,[8],decreased vascular inflammation
same,AGE formation,[7],effective in vitro at decreasing AGE formation
CCCCc1nc(Cl)c(CO)n1Cc1ccc(-c2ccccc2-c2nn[nH]n2)cc1 [losartan],AGE formation,[7],effective in vitro at decreasing AGE formation
CCC[C@H](N[C@@H](C)C(=O)N1[C@H](C(=O)O)C[C@@H]2CCCC[C@@H]21)C(=O)OCC [perindopril],atherosclerosis,[9],inhibited atherosclerosis
same,RAGE levels,[8],decreased RAGE levels
CCCc1nc2c(C)cc(-c3nc4ccccc4n3C)cc2n1Cc1ccc(-c2ccccc2C(=O)O)cc1 [telmisartan],AGE formation,[7],effective in vitro at decreasing AGE formation
O=C(O)CN1C[C@@H](c2cccs2)SC[C@H](N[C@@H](CCc2ccccc2)C(=O)O)C1=O [temocaprilat],AGE formation,[7],effective in vitro at decreasing AGE formation
CCCCC(=O)N(Cc1ccc(-c2ccccc2-c2nnn[nH]2)cc1)[C@H](C(=O)O)C(C)C [valsartan],AGE formation,[7],effective in vitro at decreasing AGE formation
SOD-1^G93A: disease-causing mutant copper/zinc superoxide dismutase with the G93A mutation,proteasome activity,[10],near complete inhibition
same,rate of death of motor neurons,[11],6.8 %/day
SOD-1^W32F/G93A: SOD-1 with the double mutation W32F and G93A,rate of death of motor neurons,[11],3.6 %/day
same,percentage of motor neurons with SOD-1 inclusions,"[12]; days 5 and 7, versus SOD-1G93A",No significant difference
same,percentage of motor neurons with SOD-1 inclusions,"[12]; post-microinjection day 3, versus SOD-1G93A, p<0.005",significantly lower proportion
SOD-1^W32F: SOD-1wt with Trp-32 replaced with Phe,rate of death of motor neurons,[11],4.3 %/day
SOD-1^wt: wild-type human copper/zinc superoxide dismutase,rate of death of motor neurons,[11],3.0 %/day
